Data set [1] in a line: Pharmacokinetics in the conscious dog model. The data set is classed as in vivo. The conditions noted are these: geometric mean ± % CV. How it is done:
A comparison of the pharmacokinetic profile in the dog of anagrelide and a representative 3-substituted analogue is shown below:—
Comparative Pharmacokinetics of Anagrelide, its Resultant Active Metabolite and a Representative 3-Substituted Analogue Follow 1 mg/kg iv in the Conscious Dog Model

The test system of data set [2] is megakaryocytopoiesis (human cell-line). As to the kind of experiment: In vitro anti-megakaryocytic activity in a model of megakaryocytopoiesis (human cell-line). The data set is classed as cell-based. How it is done: Assessment of the in vitro anti-megakaryocytic activity—and potentially therefore the platelet lowering capability—of the 3-substituted analogues of anagrelide was conducted using a well established model of megakaryocytopoiesis (Cohen-Solal et at, Thromb. Haemost. 1997, 78:37-41 and Cramer et al, Blood, 1997, 89:2336-46). It can be readily seen that with anagrelide the benefit ratio (therapeutic to adverse effects) was comparatively low at 0.024:1 (after accounting for the predominant exposure to the cardioactive metabolite in vivo).

Data set [3] in a line: In vitro metabolic stability in human hepatocytes. Format: in vitro ADME. From the text:
(§1) This comparatively longer half-life for 3,3 dimethyl anagrelide observed in the dog was mirrored in an in vitro metabolic stability study in which it was clearly much more metabolically stable than anagrelide (see table below). Hepatic metabolism is known to be the principal mechanism of clearance of anagrelide in both animals and in man.

The nature of data set [4]: In vitro metabolic stability in dog hepatocytes. Format: in vitro ADME.
Description: as §1

Data set [5] concerns the target human phosphodiesterase III (PDE III). As to the kind of experiment: In vitro PDE III inhibition (human enzyme). The data set is classed as biochemical.
The subject of a further data set is dog heart rate. As to the kind of experiment: In vivo cardiovascular effects on dog heart rate. An excerpt:
(§2) A comparison of the in vivo cardiovascular effects of anagrelide, its active metabolite and a representative example of an improved analogue shown in the table below:—

Data set [6] in a line: Solubility in test media, saturated solutions, HPLC. Particulars: ca. 20° C.; for solubility at 20 min: thermodynamic from solid. The data set is classed as physicochemical. As for the experimental part: Solubility studies were carried out on a number of anagrelide derivatives according to the present invention in various test media. The test media were; • a) singly distilled water (pH 5.0)—note no attempt was made to remove dissolved CO2. • b) 50 mM ammonium formate (pH 7.9) • c) 0.1 M hydrochloric acid (pH 0.6)
Calibration plots of HPLC peak area vs. concentration were obtained in MeOH or MeOH/DMSO over the range 1000-1 μg/ml for each substance at a temperature 20-22° C. The HPLC method used a reverse phase C18 column with a water (0.6% formic acid) and acetonitrile gradient. For the solubility studies, saturated solutions were prepared by dissolving in the desired medium with the aid of an ultrasonic bath for 20 minutes and the excess solid removed by centrifugation. The concentration of the substance in the supernatant liquid was determined from the measured peak area.

For data set [7] the following is noted: cited from earlier work.
In data set [8] the test system is megakaryocytopoiesis (human cell-line). Particulars: background; cited from earlier work.
The test system of data set [9] is human phosphodiesterase III (PDE III). Particulars: background, cited from earlier work; for IC50: read-out: IC50 as PDE III inhibitor.
Data set [10] concerns erythroid or myelomonocytic differentiation. Particulars: stimulated by erythropoietin or granulocyte-macrophage colony-stimulating factor; cited from earlier work.
The next data set relates to heart rate. The data set is described as follows: In vivo cardiovascular effects on dog heart rate. Particulars: in vivo.
Description: as §2

The mark [11] stands for this setting: Example 1 table, read-out: IC50 for anti-megakaryocytic (platelet lowering) activity.
Where [12] appears, read: read-out: In vitro IC50 for anti-megakaryocytic effects (human cell-line).
Setting [13] is: Example 1 table, read-out: IC50 for PDE III inhibition (cardiovascular effects).
Where [14] appears, read: read-out: In vitro IC50 for PDE III inhibition (human enzyme).

Here are results for 14 compounds from patent US7910597B2, “Substituted quinazolines” (Shire LLC, priority 2006, dated 2011).

Structures can show the parent of a compound that is named as a salt. Where two headings read alike, the source gives them in different places.

As usually defined, the AUC(0-t) is exposure summed from dosing to a finite time, without extrapolation to infinity. The term Cmax denotes the maximum level reached in the sampled fluid or tissue. A word on the Vss: it is a proportionality between amount in the body and measured concentration, not a real space. The low end stands for little distribution into tissue, the high end for wide distribution into tissue. What is called IC50 is the concentration needed to halve the response being measured. By solubility is commonly meant how much of the substance goes into solution per volume. What is called clearance is the rate of elimination divided by the concentration. Read a low clearance as a low capacity for elimination. As usually defined, the half-life is the time in which the quantity being followed falls by half. High values mean slow loss, low ones fast loss. Usually ED50 stands for the dose at which the effect has come halfway, by size or by number of responders.

On to `CC1(C)C(=O)NC2=Nc3ccc(Cl)c(Cl)c3CN21` [3,3 dimethyl anagrelide, 3,3-dimethylanagrelide], for which, in data set [1] (1 mg/kg), the exposure AUC(0-t) was determined as 1903 ± 47 ng·h/mL, the Cmax came out at 167 ± 33 ng/mL and the T1/2 is 9.39 h. In [1] (after 1 mg/kg iv), the CL worked out at 2.97 ± 0.765 mL/min/kg and the Vss amounted to 1.967 ± 0.024 L/kg. Besides, the IC50 in data set [2] (setting [11]) was 164 nM. Further, the concentration for half-maximal inhibition (IC50) in [2] (setting [12]) was 166 nM. Besides, the “In vitro "half-life" in human hepatocytes” value in data set [3] was 22.8 h. Also, in [4], the “In vitro "half-life" in dog hepatocytes” value is on record as “No apparent degradation”. The concentration for half-maximal inhibition (IC50) in [5] (setting [13]) was found to be 166 nM. Besides, in [5] (setting [14]), the half-inhibitory concentration (IC50) was 164 nM. Moreover, in the data set on dog heart rate, the “In vivo ED20 for effects on dog heart rate” value (“In vivo ED20 for effects” for short) is listed as 2,512 μg/kg and the “In vivo ED50 for effects on dog heart rate” value is 3,557 ug/kg μg/kg.

On to `O=C1[N-]C2=Nc3ccc(Cl)c(Cl)c3CN2C12CC2.[Na+]` [3,3,Spiro-Cyclopropyl-anagrelide sodium salt], for which the “Solubility in hydrochloric acid (0.1M, pH 0.6)” value (“Solubility in hydrochloric acid” for short) in data set [6] (0.1M HCl, pH 0.6) worked out at 28 μg mL^−1. In addition, the “Solubility in ammonium formate (50 mM, pH 7.9)” value (from here on “Solubility in ammonium formate”) in [6] (ammonium formate 50 mM, pH 7.9) amounted to 1 μg mL^−1. Further, the “Solubility in water (pH 5.0)” value in data set [6] (singly distilled water, pH 5.0) is reported as 542 μg mL^−1.

On to `Br.CC1(C)C(=O)NC2=Nc3ccc(Cl)c(Cl)c3CN21` [3,3-Dimethylanagrelide hydrobromide], for which, in [6] (0.1M HCl, pH 0.6), the “Solubility in hydrochloric acid” value is 215 μg mL^−1. Also, the “Solubility in ammonium formate” value in data set [6] (ammonium formate 50 mM, pH 7.9) is given as 4 μg mL^−1. The “Solubility in water (pH 5.0)” value in data set [6] (singly distilled water, pH 5.0) worked out at 20 μg mL^−1.

In the case of `CC1(C)C(=O)[N-]C2=Nc3ccc(Cl)c(Cl)c3CN21.[Na+]` [3,3-Dimethylanagrelide sodium salt], the “Solubility in hydrochloric acid” value in [6] (0.1M HCl, pH 0.6) stood at 212 μg mL^−1. Besides, the “Solubility in ammonium formate” value in data set [6] (ammonium formate 50 mM, pH 7.9) is given as 6 μg mL^−1. Further, the “Solubility in water (pH 5.0)” value in [6] (singly distilled water, pH 5.0) is 409 μg mL^−1.

Regarding `Br.O=C1NC2=Nc3ccc(Cl)c(Cl)c3CN2C12CC2` [3,3-spiro-Cyclopropyl-anagrelide hydrobromide], the “Solubility in hydrochloric acid” value in [6] (0.1M HCl, pH 0.6) amounted to 35 μg mL^−1. The “Solubility in ammonium formate” value in data set [6] (ammonium formate 50 mM, pH 7.9) is 1 μg mL^−1. The “Solubility in water (pH 5.0)” value in [6] (singly distilled water, pH 5.0) is recorded as 2 μg mL^−1.

For `C=c1c(=O)[n-]c2n1Cc1c(ccc(Cl)c1Cl)N=2.[Na+]` [3-Methyleneanagrelide Na salt], in [6] (0.1M HCl, pH 0.6), the “Solubility in hydrochloric acid” value came out at 189 μg mL^−1. Further, in data set [6] (ammonium formate 50 mM, pH 7.9), the “Solubility in ammonium formate” value came to 39 μg mL^−1. The “Solubility in water (pH 5.0)” value in data set [6] (singly distilled water, pH 5.0) came to 1830 μg mL^−1.

As to `C=c1c(=O)[nH]c2n1Cc1c(ccc(Cl)c1Cl)N=2` [3-Methyleneanagrelide, 3-methyleneanagrelide], the “Solubility in hydrochloric acid” value in [6] (0.1M HCl, pH 0.6) is on record as 43 μg mL^−1. Moreover, the “Solubility in ammonium formate” value in data set [6] (ammonium formate 50 mM, pH 7.9) is recorded as 5 μg mL^−1. Further, the “Solubility in water (pH 5.0)” value in data set [6] (singly distilled water, pH 5.0) is 9 μg mL^−1.

Turning to `O=C1NC2=Nc3ccc(Cl)c(Cl)c3CN2C1O` (stereo not shown) [3-hydroxy anagrelide, 3-hydroxyanagrelide], in data set [1] (1 mg/kg), the area under the curve AUC(0-t) turned out to be 179 ± 14 ng·h/mL. This compound also came in with a peak concentration (Cmax) in [1] (1 mg/kg) of 60.1 ± 14 ng/mL. The same compound came in with a T1/2 in data set [1] (1 mg/kg) of 1.57 ± 24 h. Besides, the IC50 amounted to 44 nM in data set [2] (setting [11]), 44 nM in data set [2] (setting [12]), 0.7 nM in [5] (setting [13]) and 0.7 nM in [5] (setting [14]). Moreover, the “In vivo exposure relative to parent drug” value in data set [7] (after anagrelide treatment) is reported as 2-3 fold. The Typical half-life in data set [7] (background, patients) is 2.5 h. Besides, the “Inhibition of megakaryocytopoiesis relative to parent drug (in words)” value in [8] is “no more potent than the parent drug”. Also, the “In vivo ED20 for effects” value in the data set on dog heart rate amounted to 7.1 µg/kg. The “In vivo ED50 for effects on dog heart rate” value with dog heart rate turned out to be 11.72 ug/kg μg/kg. Besides, the “Potency as PDE III inhibitor relative to anagrelide” value in data set [9] (more potent than anagrelide) is “over 40 fold”.

As to `O=C1NC2=Nc3ccc(Cl)c(Cl)c3CN2C12CC2` [3-spirocyclo propyl anagrelide, 3,3,spiro-cyclopropyl-anagrelide], the IC50 in data set [2] (setting [11]) amounted to 547 nM; in data set [5] (setting [13]) it was 797 nM.

With `C[C@@H]1C(=O)NC2=Nc3ccc(Cl)c(Cl)c3CN21` [(R)-3-methyl anagrelide], the “Anti-megakaryocytic activity (in words)” value in data set [2] was “good anti-megakaryocytic activity”. For the same compound, the “PDE III inhibitory activity (in words)” value in data set [5] is “significantly reduced PDE III inhibition relative to 3-OH anagrelide”.

`C[C@H]1C(=O)NC2=Nc3ccc(Cl)c(Cl)c3CN21` [(S)-3-methyl anagrelide]: the “Anti-megakaryocytic activity (in words)” value in [2] is listed as “good anti-megakaryocytic activity”. In data set [5], the “PDE III inhibitory activity (in words)” value was “significantly reduced PDE III inhibition relative to 3-OH anagrelide”.

Regarding `O=C1CN2Cc3c(ccc(Cl)c3Cl)N=C2N1` [Anagrelide hydrochloride, 6,7-dichloro-1,5-dihydroimidazo[2,1-b]-quinazolin-2(3H)-one hydrochloride monohydrate, reference compound], the solubility at 20 min in data set [6] (50 mM ammonium formate, aqueous buffer, ammonium formate 50 mM, pH 7.9, read-out: Solubility in ammonium formate (50 mM, pH 7.9)) is 10 µg/mL; in data set [6] (0.1 M hydrochloric acid, simulated gastric fluid, 0.1M HCl, pH 0.6, read-out: Solubility in hydrochloric acid (0.1M, pH 0.6)), 169 µg/mL; in [6] (singly distilled water, pH 5.0, read-out: Solubility in water (pH 5.0)), 11 µg/mL.

For `O=C1CN2Cc3c(ccc(Cl)c3Cl)N=C2N1` [Anagrelide, 6,7-dichloro-1,5-dihydroimidazo[2,1-b]-quinazolin-2(3H)-one hydrochloride monohydrate], the clearance in [1] (in vivo, after 1 mg/kg iv) was 19.3 mL/min/kg. In addition, in data set [1] (in vivo, after 1 mg/kg iv, read-out: Vss), the Vd amounted to 1.011 ± 0.0038 L/kg. Also, the half-life is 1.37 h in data set [1] (in vivo, intravenous, 1 mg/kg); 6.62 h in data set [3]; 1.25 h in data set [4]. Also, in [1] (in vivo, intravenous, 1 mg/kg, read-out: AUC(0-t)), the area under the curve AUC(0-t) amounted to 101 ± 15 ng·h/mL. Besides, the Cmax in data set [1] (in vivo, intravenous, 1 mg/kg, read-out: Cmax) is 48.1 ± 21 ng/mL. In addition, the “Effect on erythroid or myelomonocytic differentiation (in words)” value in data set [10] was “does not affect erythroid or myelomonocytic differentiation”. In addition, the concentration for half-maximal inhibition (IC50) in data set [2] (Homo sapiens, Platelet, Example 1 table, read-out: IC50 for anti-megakaryocytic (platelet lowering) activity) was 27 nM; in data set [2] (Homo sapiens, read-out: In vitro IC50 for anti-megakaryocytic effects (human cell-line)) it was 26 nM; in data set [5] (setting [13]) it was 32 nM; in data set [5] (setting [14]), 29 nM; in [9] it was about 29 nM. Further, the First pass effect in data set [7] (background) is listed as over 50%. This compound registered a 50% effective dose (ED50) in the data set with heart rate of 0.986 mg/kg. Also, the “In vivo ED20 for effects” value in the data set on dog heart rate was found to be 376 µg/kg.

Consider `Cc1[nH]c(=O)c(C#N)cc1-c1ccncc1` [milrinone], for which, in [9], the 50% inhibitory concentration (IC50) was 170 to 350 nM.
